For one assay, the system named is Alternaria solani. Briefly: Alternaria solani (early blight of tomato/potato) radial mycelial growth on Potato Dextrose Agar. The class given is cell-based. The conditions noted are these: 168 h, Potato Dextrose Agar, 25° C., 60% relative humidity, seven days, read-out: control compared to the untreated check. The procedure:
Example 4: Alternaria solani (Early Blight of Tomato/Potato)
Compounds were dissolved in 0.3% DMSO & then added to Potato Dextrose Agar medium just prior to dispensing it into petri dishes. 5 mL medium with compound in the desired concentration was dispensed into 60 mm sterile petri-plates. After solidification each plate was seeded with 5 mm size mycelial disc taken form periphery of actively growing virulent culture plate. Plates were incubated in growth chambers at 25° C. temperature and 60% relative humidity for seven days and radial growth was measured.

For the next assay, the system named is Botrytis cinerea. Briefly: Botrytis cinerea (gray mold) radial mycelial growth on Potato Dextrose Agar. It is filed as cell-based. The conditions noted are these: 168 h, 22° C., 90% relative humidity, seven days, read-out: control compared to the untreated check. The procedure: Example 3: Botrytis cinerea (Gray Mold)
Compounds were dissolved in 0.3% DMSO & then added to Potato Dextrose Agar medium just prior to dispensing it into petri dishes. 5 mL medium with compound in the desired concentration was dispensed into 60 mm sterile petri-plates. After solidification, each plate was seeded with 5 mm size mycelial disc taken form periphery of actively growing virulent culture plate. Plates were incubated in growth chambers at 22° C. temperature and 90% relative humidity for seven days and radial growth was measured.

A further assay deals with Pyricularia oryzae. Briefly: microbe, parasite or virus in culture. The class given is cell-based. The conditions noted are these: 168 h, read-out: control compared to the untreated check.
The test system of a further assay is Phakopsora pachyrhizi. Briefly: Phakopsora pachyrhizi test in soybean, preventive spray. The class given is in vivo. The conditions noted are these: preventive spray on soybean plants, inoculated one day after treatment, greenhouse 25° C., 90% relative humidity, read-out: control (efficacy, disease severity rating) compared to the untreated check. The procedure:
Example 8: Phakopsora pachyrhizi Test in Soybean
Compounds were dissolved in 2% DMSO/Acetone & then mixed with water to the calibrated spray volume of 50 mL and poured into the spray bottles for further applications.
To test the preventive activity of compounds, healthy young soybean plants raised in the greenhouse were sprayed with active compound preparation at the stated application rates inside the spray cabinets using hallowcone nozzles. One day after treatment, the plants were inoculated with spore suspension containing 2.1×10^6 Phakopsora pachyrhizi inoculum. The inoculated plants were then kept in greenhouse chamber at 25° C. temperature & 90% relative humidity for disease expression.
A visual assessment of compound's performance was carried out by rating the disease severity (0-100% scale) on treated plants on 3, 7, 10 & 15 days after application. Efficacy (% control) of the compounds was calculated by comparing the disease rating in the treatment with the one of the untreated control. The sprayed plants were also assessed for compound's plant compatibility by recording symptoms like necrosis, chlorosis & stunting.

For the compound `CS(=O)(Cc1ccccc1F)=Nc1ccc(-c2noc(C(F)(F)F)n2)cc1` (stereo not drawn) [Compound 94, (2-fluorobenzyl)(methyl)((4-(5-(trifluoromethyl)-1,2,4-oxadiazol-3-yl)phenyl)imino)-λ^6-sulfanone], the inhibition of growth at 300 ppm with Alternaria solani is over 70%.

As for `CS(=O)(Cc1ccc(C(F)(F)F)cc1)=Nc1ccc(-c2noc(C(F)(F)F)n2)cc1` (stereo not drawn) [Compound 90, methyl((4-(5-(trifluoromethyl)-1,2,4-oxadiazol-3-yl)phenyl)imino)(4-(trifluoromethyl)benzyl)-λ^6-sulfanone], the inhibition of growth at 300 ppm in the assay on Botrytis cinerea is over 70%. On to `Cc1csc(S(C)(=O)=Nc2ccc(-c3noc(C(F)(F)F)n3)cc2)n1` (stereo not drawn) [Compound 117, methyl(4-methylthiazol-2-yl)((4-(5-(trifluoromethyl)-1,2,4-oxadiazol-3-yl)phenyl)imino)-λ^6-sulfanone], for which the inhibition of growth at 300 ppm with Pyricularia oryzae and with Alternaria solani was over 70% in each case. On to `O=C(NS(=O)(=O)c1c(Cl)cccc1Cl)c1ccc(-c2noc(C(F)(F)F)n2)cc1` [Compound 163, N-((2,6-dichlorophenyl)sulfonyl)-4-(5-(trifiuoromethyl)-1,2,4-oxadiazol-3-yl)benzamide], for which the inhibition of growth at 300 ppm in the assay with Alternaria solani was over 70%. Take `COc1ccc(S(C)(=O)=Nc2ccc(-c3noc(C(F)(F)F)n3)cc2)c(OC)c1` (stereo not drawn) [Compound 96, (2,4-dimethoxyphenyl)(methyl)((4-(5-(trifluoromethyl)-1,2,4-oxadiazol-3-yl)phenyl)imino)-λ^6-sulfanone]: the inhibition of growth at 300 ppm in the assay with Pyricularia oryzae and with Alternaria solani was over 70% throughout. The pest or weed control at 500 ppm in the assay with Phakopsora pachyrhizi is over 90%. For the compound `COc1ccc(S(C)(=O)=NCc2cccc(-c3noc(C(F)(F)F)n3)c2)c(OC)c1` (stereo not drawn) [Compound 140, (2,4-dimethoxyphenyl)(methyl)((3-(5-(trifluoromethyl)-1,2,4-oxadiazol-3-yl)benzyl)imino)-sulfanone], in the assay on Botrytis cinerea, the inhibition of growth at 300 ppm is over 70%. In the case of `CS(=O)(Cc1ccncc1)=NC(=O)c1ccc(-c2noc(C(F)(F)F)n2)cc1` (stereo not drawn) [Compound 59, N-(mehtyl(oxo)(pyridin-4-ylmethyl)-λ^6-sulfaneylidene)-4-(5-(trifluoromethyl)-1,2,4-oxadiazol-3-yl)benzamide], in the assay on Alternaria solani, the inhibition of growth at 300 ppm was over 70%. The pest or weed control at 500 ppm with Phakopsora pachyrhizi was over 90%.

For the compound `O=C(NS(=O)(=O)c1ccc(Br)cc1)c1ccc(-c2noc(C(F)(F)F)n2)cc1` [Compound 162, N-((4-bromophenyl)sulfonyl)-4-(5-(trifluoromethyl)-1,2,4-oxadiazol-3-yl)benzamide], in the assay with Alternaria solani, the inhibition of growth at 300 ppm was over 70%. Take `COc1ccc(S(C)(=O)=NC(=O)c2ccc(-c3noc(C(F)(F)F)n3)cc2)c(OC)c1` (stereo not drawn) [Compound 56, N-((2,4-dimethoxyphenyl)(methyl)(oxo)-λ^6-sulfaneylidene)-4-(5-(trifluoromethyl)-1,2,4-oxadiazol-3-yl)benzamide]: in the assay with Alternaria solani, the inhibition of growth at 300 ppm was over 70%. For the same compound, the pest or weed control at 500 ppm with Phakopsora pachyrhizi is over 90%.

For the compound `Cc1ccc(S(C)(=O)=NCc2ccc(-c3noc(C(F)(F)F)n3)cc2)cc1` (stereo not drawn) [Compound 137, methyl(p-tolyl)((4-(5-(trifluoromethyl)-1,2,4-oxadiazol-3-yl)benzyl)imino)-λ^6-sulfanone], the inhibition of growth at 300 ppm in the assay on Pyricularia oryzae and with Alternaria solani was over 70% in each case.

With `CS(=O)(Cc1ccc(Cl)c(F)c1)=Nc1ccc(-c2noc(C(F)(F)F)n2)cc1` (stereo not drawn) [Compound 99, (4-chloro-3-florobenzyl)(methyl)((4-(5-(trifluoromethyl)-1,2,4-oxadiazol-3-yl)phenyl)imino)-λ^6-sulfanone], the inhibition of growth at 300 ppm in the assay on Alternaria solani is over 70%. Besides, the pest or weed control at 500 ppm in the assay with Phakopsora pachyrhizi is over 90%.

As for `Cc1ccc(S(=O)(=O)NC(=O)c2ccc(-c3noc(C(F)(F)F)n3)cc2)cc1` [Compound 153, N-tosyl-4-(5-(trifluoromethyl)-1,2,4-oxadiazol-3-yl)benzamide], in the assay with Botrytis cinerea, the inhibition of growth at 300 ppm was over 70%. As to `CS(=O)(Cc1ccccn1)=NC(=O)c1ccc(-c2noc(C(F)(F)F)n2)cc1` (stereo not drawn) [Compound 52, N-(methyl(oxo)(pyridin-2-ylmethyl)-λ^6-sulfaneylidene)-4-(5-(trifluoromethyl)-1,2,4-oxadiazol-3-yl)benzamide], the inhibition of growth at 300 ppm with Alternaria solani was over 70%. Moreover, the pest or weed control at 500 ppm in the assay on Phakopsora pachyrhizi is over 90%. Take `CS(=O)(Cc1cccc(F)c1F)=NC(=O)c1ccc(-c2noc(C(F)(F)F)n2)cc1` (stereo not drawn) [Compound 33, N-((2,3-difluorobenzyl)(methyl)(oxo)-λ^6-sulfaneylidene)-4-(5-(trifluoromethyl)-1,2,4-oxadiazol-3-yl)benzamide]: the inhibition of growth at 300 ppm in the assay with Alternaria solani is over 70%. `CS(=O)(=NC(=O)c1ccc(-c2noc(C(F)(F)F)n2)cc1)c1nccs1` (stereo not drawn) [Compound 48, N-(methyl(oxo)(thiazol-2-yl)-λ^6-sulfaneylidene)-4-(5-(trifluoromethyl)-1,2,4-oxadiazol-3-yl)benzamide]: the inhibition of growth at 300 ppm in the assay with Botrytis cinerea and with Alternaria solani was over 70% throughout. Moreover, the pest or weed control at 500 ppm in the assay with Phakopsora pachyrhizi is over 90%.

Take `CS(=O)(Cc1ccc(C#N)cc1)=NC(=O)c1cccc(-c2noc(C(F)(F)F)n2)c1` (stereo not drawn) [Compound 75, N-((4-cyanobenzyl)(methyl)(oxo)-λ^6-sulfaneylidene)-3-(5-(trifluoromethyl)-1,2,4-oxadiazol-3-yl)benzamide]: the inhibition of growth at 300 ppm with Alternaria solani is over 70%. For the same compound, the pest or weed control at 500 ppm in the assay on Phakopsora pachyrhizi is over 90%.

Consider `CS(=O)(=NC(=O)c1ccc(-c2noc(C(F)(F)F)n2)cc1)c1ccc(F)cc1F` (stereo not drawn) [Compound 47, N-((2,4-difluorophenyl)(methyl)(oxo)-λ^6-sulfaneylidene)-4-(5-(trifluoromethyl)-1,2,4-oxadiazol-3-yl)benzamide], for which the inhibition of growth at 300 ppm in the assay with Alternaria solani is over 70%. The pest or weed control at 500 ppm in the assay with Phakopsora pachyrhizi is over 90%. In the case of `COc1ccc(S(C)(=O)=NC(=O)c2cccc(-c3noc(C(F)(F)F)n3)c2)cc1` (stereo not drawn) [Compound 71, N-((4-methoxyphenyl)(methyl)(oxo)-λ^6-sulfaneylidene)-3-(5-(trifluoromethyl)-1,2,4-oxadiazol-3-yl)benzamide], in the assay with Alternaria solani, the inhibition of growth at 300 ppm was over 70%. In addition, in the assay with Phakopsora pachyrhizi, the pest or weed control at 500 ppm was over 90%.

Take `CS(=O)(Cc1cc(F)ccc1F)=NC(=O)c1ccc(-c2noc(C(F)(F)F)n2)cc1` (stereo not drawn) [Compound 62, N-((2,5-difluorobenzyl)(methyl)(oxo)-λ^6-sulfaneylidene)-4-(5-(trifluoromethyl)-1,2,4-oxadiazol-3-yl)benzamide]: the inhibition of growth at 300 ppm in the assay on Alternaria solani is over 70%. Moreover, in the assay on Phakopsora pachyrhizi, the pest or weed control at 500 ppm was over 90%. With `COc1ccc(S(=O)(=O)NC(=O)c2ccc(-c3noc(C(F)(F)F)n3)cc2)cc1` [Compound 157, N-((4-methoxyphenyl)sulfonyl)-4-(5-(trifiuoromethyl)-1,2,4-oxadiazol-3-yl)benzamide], the inhibition of growth at 300 ppm in the assay with Botrytis cinerea and with Alternaria solani was over 70% throughout. Consider `COc1ccc(S(C)(=O)=Nc2ccc(-c3noc(C(F)(F)F)n3)cc2)cc1` (stereo not drawn) [Compound 20, (4-methoxyphenyl)(methyl)((4-(5-(trifluoromethyl)-1,2,4-oxadiazol-3-yl)phenyl)imino)-λ^6-sulfanone], for which the inhibition of growth at 300 ppm in the assay on Pyricularia oryzae and in the assay with Alternaria solani was over 70% throughout. Besides, in the assay on Phakopsora pachyrhizi, the pest or weed control at 500 ppm is over 90%. Consider `CS(=O)(=NC(=O)c1cccc(-c2noc(C(F)(F)F)n2)c1)c1nccs1` (stereo not drawn) [Compound 73, N-(methyl(oxo)(thiazol-2-yl)-λ^6-sulfaneylidene)-3-(5-(trifluoromethyl)-1,2,4-oxadiazol-3-yl)benzamide], for which, in the assay on Alternaria solani, the inhibition of growth at 300 ppm was over 70%. For the compound `CS(=O)(=NCc1cccc(-c2noc(C(F)(F)F)n2)c1)c1ccccc1` (stereo not drawn) [Compound 138, methyl(phenyl)((3-(5-(trifluoromethyl)-1,2,4-oxadiazol-3-yl)benzyl)imino)-λ^6-sulfanone], the inhibition of growth at 300 ppm in the assay with Pyricularia oryzae and in the assay with Botrytis cinerea was over 70% each time. Regarding `CS(=O)(=NCc1cccc(-c2noc(C(F)(F)F)n2)c1)c1ccccc1F` (stereo not drawn) [Compound 148, (2-fluorophenyl)(methyl)((3-(5-(trifluoromethyl)-1,2,4-oxadiazol-3-yl)benzyl)imino)-λ^6-sulfanone], the inhibition of growth at 300 ppm in the assay with Pyricularia oryzae and in the assay on Alternaria solani was over 70% each time. On to `COc1ccc(S(C)(=O)=NCc2cccc(-c3noc(C(F)(F)F)n3)c2)cc1` (stereo not drawn) [Compound 139, (4-methoxyphenyl)(methyl)((3-(5-(trifluoromethyl)-1,2,4-oxadiazol-3-yl)benzyl)imino)-λ^6-sulfanone], for which the inhibition of growth at 300 ppm in the assay with Pyricularia oryzae and with Botrytis cinerea was over 70% throughout.

The values above are taken from patent US11286242B2 (priority 2018, dated 2022).
